Patent US8420633B2 (Hoffmann-La Roche Inc., priority 2010, dated 2013)
Where a name gives a salt, the structure may show the parent alone.

Target: T1, human V1a receptor (Homo sapiens, UniProt P37288)
T1 construct: expressed in transfected cells; host or cells: HEK293 cells, transiently transfected; membranes prepared
Assay: human V1a receptor binding (3H-Vasopressin SPA, HEK293 membranes)
Conditions: not given
Method: The human V1a receptor was cloned by RT-PCR from total human liver RNA. The coding sequence was subcloned in an expression vector after sequencing to confirm the identity of the amplified sequence. […] Cell membranes were prepared from HEK293 cells transiently transfected with the expression vector and grown in 20 liter fermenters with the following protocol.
50 g of cells are resuspended in 30 ml freshly prepared ice cold Lysis buffer (50 mM HEPES, 1 mM EDTA, 10 mM magnesium dichloride adjusted to pH=7.4+complete cocktail of protease inhibitor (Roche Diagnostics)). Homogenized with Polytron for 1 min and sonicated on ice for 2×2 minutes at 80% intensity (Vibracell sonicator). The preparation is centrifuged 20 min at 500 g at 4° C., the pellet is discarded and the supernatant centrifuged 1 hour at 43,000 g at 4° C. (19,000 rpm). The pellet is resuspended in 12.5 ml Lysis buffer+12.5 ml sucrose 20% and homogenized using a Polytron for 1-2 min. The protein concentration is determined by the Bradford method and aliquots are stored at −80° C. until use. For binding studies 60 mg Yttrium silicate SPA beads (Amersham®) are mixed with an aliquot of membrane in binding buffer (50 mM Tris, 120 mM sodium chloride, 5 mM potassium chloride, 2 mM calcium dichloride, 10 mM magnesium dichloride) for 15 minutes with mixing. 50 μl of bead/membrane mixture is then added to each well of a 96 well plate, followed by 50 μl of 4 nM 3H-Vasopressin (American Radiolabeled Chemicals). For total binding measurement 100 μl of binding buffer are added to the respective wells, for non-specific binding 100 μl of 8.4 mM cold vasopressin and for compound testing 100 μl of a serial dilution of each compound in 2% dimethyl sulfoxide. The plate is incubated 1 h at room temperature, centrifuged 1 min at 1000 g and counted on a Packard Top-Count. Non-specific binding counts are subtracted from each well and data is normalized to the maximum specific binding set at 100%. To calculate an IC50 the curve is fitted using a non-linear regression model (XLfit) and the Ki is calculated using the Cheng-Prussoff equation.

T1 sequence (P37288 whole entry): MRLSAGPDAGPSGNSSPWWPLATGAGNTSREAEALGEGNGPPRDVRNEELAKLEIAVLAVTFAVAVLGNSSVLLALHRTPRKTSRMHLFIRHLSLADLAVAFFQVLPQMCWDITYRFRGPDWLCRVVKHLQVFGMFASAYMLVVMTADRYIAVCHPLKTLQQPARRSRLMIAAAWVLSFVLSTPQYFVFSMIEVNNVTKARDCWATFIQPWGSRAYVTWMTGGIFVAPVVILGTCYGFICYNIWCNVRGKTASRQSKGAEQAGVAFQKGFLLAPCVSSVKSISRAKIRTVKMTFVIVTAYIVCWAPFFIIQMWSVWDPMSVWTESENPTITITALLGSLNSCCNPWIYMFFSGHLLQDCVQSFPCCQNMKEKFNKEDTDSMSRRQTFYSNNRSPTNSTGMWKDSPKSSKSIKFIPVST

Row | Compound | Ki
1 | CC(C)(C)OC(=O)N1Cc2cc(Cl)ccc2-n2c(nnc2[C@H]2CC[C@H](c3cccc4ccccc43)CC2)C1 [Example 19, trans-8-Chloro-1-(4-naphthalen-1-yl-cyclohexyl)-4H,6H-2,3,5,10b-tetraaza-benzo[e]azulene-5-carboxylic acid tert-butyl ester] | 6.03 nM
2 | CN1Cc2cc(Cl)ccc2-n2c(nnc2[C@H]2CC[C@H](c3ccccc3)CC2)C1 [Example 3, trans-8-Chloro-5-methyl-1-(4-phenyl-cyclohexyl)-5,6-dihydro-4H-2,3,5,10b-tetraaza-benzo[e]azulene] | 0.794 nM

Same assay, conditions: 3H-Vasopressin displacement, membranes of HEK293 cells transiently transfected with human V1a; Ki from IC50 by Cheng-Prussoff; read-out: pKi (hV1a) (converted)

Row | Compound | Ki
3 | Clc1ccc2c(c1)CNCc1nnc([C@H]3CC[C@H](c4ccccc4)CC3)n1-2 [Example 2, trans-8-Chloro-1-(4-phenyl-cyclohexyl)-5,6-dihydro-4H-2,3,5,10b-tetraaza-benzo[e]azulene hydrochloride] | 2.09 nM
4 | CN1Cc2cc(Cl)ccc2-n2c(nnc2[C@H]2CC[C@H](c3cccc(C#N)c3)CC2)C1 [Example 27, trans-3-[4-(8-Chloro-5-methyl-5,6-dihydro-4H-2,3,5,10b-tetraaza-benzo[e]azulen-1-yl)-cyclohexyl]-benzonitrile] | 2.69 nM
5 | Fc1cccc([C@H]2CC[C@H](c3nnc4n3-c3ccc(Cl)cc3CNC4)CC2)c1Cl [Example 17, trans-8-Chloro-1-[4-(2-chloro-3-fluoro-phenyl)-cyclohexyl]-5,6-dihydro-4H-2,3,5,10b-tetraaza-benzo[e]azulene hydrochloride] | 15.1 nM
6 | OCCN1Cc2cc(Cl)ccc2-n2c(nnc2[C@H]2CC[C@H](c3ccccc3)CC2)C1 [Example 32, trans-2-[8-Chloro-1-(4-phenyl-cyclohexyl)-4H,6H-2,3,5,10b-tetraaza-benzo[e]azulen-5-yl]-ethanol] | 1.41 nM
7 | CC(C)(C)OC(=O)N1Cc2cc(Cl)ccc2-n2c(nnc2[C@H]2CC[C@@H](c3ccc(F)cc3)CC2)C1 [Example 7] | 52.5 nM
8 | CN1Cc2cc(Cl)ccc2-n2c(nnc2[C@H]2CC[C@H](c3cccc4ccccc43)CC2)C1 [Example 21, trans-8-Chloro-5-methyl-1-(4-naphthalen-1-yl-cyclohexyl)-5,6-dihydro-4H-2,3,5,10b-tetraaza-benzo[e]azulene] | 7.59 nM
9 | Clc1ccc2c(c1)CN(Cc1ccccn1)Cc1nnc([C@H]3CC[C@H](c4ccccc4)CC3)n1-2 [Example 31, trans-8-Chloro-1-(4-phenyl-cyclohexyl)-5-pyridin-2-ylmethyl-5,6-dihydro-4H-2,3,5,10b-tetraaza-benzo[e]azulene] | 2.4 nM
10 | CN1Cc2cc(Cl)ccc2-n2c(nnc2[C@H]2CC[C@H](c3cccc(F)c3Cl)CC2)C1 [Example 18, trans-8-Chloro-1-[4-(2-chloro-3-fluoro-phenyl)-cyclohexyl]-5-methyl-5,6-dihydro-4H-2,3,5,10b-tetraaza-benzo[e]azulene] | 3.09 nM
11 | Clc1ccc2c(c1)CNCc1nnc([C@H]3CC[C@H](c4cccc5ccccc54)CC3)n1-2 [Example 20, trans-8-Chloro-1-(4-naphthalen-1-yl-cyclohexyl)-5,6-dihydro-4H-2,3,5,10b-tetraaza-benzo[e]azulene hydrochloride] | 20.4 nM
12 | CC(C)N1Cc2cc(Cl)ccc2-n2c(nnc2[C@H]2CC[C@H](c3ccccc3)CC2)C1 [Example 30, trans-8-Chloro-5-isopropyl-1-(4-phenyl-cyclohexyl)-5,6-dihydro-4H-2,3,5,10b-tetraaza-benzo[e]azulene] | 1.91 nM
13 | COc1ccc(F)cc1[C@H]1CC[C@H](c2nnc3n2-c2ccc(Cl)cc2CNC3)CC1 [Example 23, trans-8-Chloro-1-[4-(5-fluoro-2-methoxy-phenyl)-cyclohexyl]-5,6-dihydro-4H-2,3,5,10b-tetraaza-benzo[e]azulene hydrochloride] | 42.7 nM
14 | CN1Cc2cc(Cl)ccc2-n2c(nnc2[C@H]2CC[C@@H](c3ccc(F)cc3)CC2)C1 [Example 9, cis-8-Chloro-1-[4-(4-fluoro-phenyl)-cyclohexyl]-5-methyl-5,6-dihydro-4H-2,3,5,10b-tetraaza-benzo[e]azulene] | 30.2 nM
